In patent publication US8697668B2, “Compositions and methods for preventing and treating cancer via modulating UBE1L, ISG215 and/or UBP43” (Trustees of Dartmouth College, priority 2002, dated 2014):
Where two headings read alike, the source gives them in different places. Where a SMILES comes first, the peptide text is derived from it. [ ]: non-standard residue; d: D form. Nle = CCCC[C@H](N)C(=O)O

Experiments:
[1] = test system: ISG15-conjugated cyclin D1; assay: Immunoprecipitation/immunoblot of ISG15-cyclin D1 conjugates in BEAS-2B cells; type: cell-based, human; conditions: BEAS-2B cells co-transfected with UBE1L, ISG15 and cyclin D1
Description: Cells were lysed with ice-cold radioimmunoprecipitation (RIPA) lysis buffer, using established techniques (Pitha-Rowe, et al. (2004) supra; Pitha-Rowe, et al. (2004) supra; Feng, et al. (2007) supra; Ma, et al. (2005) Cancer Res. 65:6476-83). Lysates were size-fractionated by sodium dodecyl sulphate-polyacrylamide gel electrophoresis (SDS-PAGE) assays before transfer to nitrocellulose membranes (Schleicher & Schuell Bioscience, Inc., Keene, N.H.). The polyclonal antibody recognizing the UBE1L amino terminus of UBE1L was used for immunoblot and immunohistochemical assays. Other primary antibodies for immunoblot assays included a rabbit polyclonal antibody recognizing cyclin D1 (M-20) (Santa Cruz Biotechnology, Santa Cruz, Calif.), a murine monoclonal antibody against hemagglutinin (HA)-tagged proteins (Babco, Richmond, Calif.) and a goat polyclonal antibody recognizing actin (Santa Cruz Biotechnology). Anti-mouse and anti-rabbit antisera were purchased (Amersham Biosciences, Piscataway, N.J.) as was anti-goat antisera (Santa Cruz Biotechnology) and these were used as respective secondary antibodies. Membranes used for immunoblot analyses were treated with the MEMCODE reversible stain (Pierce, Rockford, Ill.). […] Quantification of signal intensities was scored as before (Shah, et al. (2008) supra; Feng, et al. (2007) supra; Ma, et al. (2005) supra). […]

[2] = test system: BEAS-2B human bronchial epithelial cells; assay: Clonal growth assay; type: cell-based; conditions: bexarotene treatment, FIG. 2
Description: Human bronchial epithelial cells (BEAS-2B) were cultured in serum-free LHC-9 medium (Biofluids, Rockville, Md.) in accordance with established techniques (Langenfeld, et al. (1997) Proc. Natl. Acad. Sci. USA 94:12070-12074; Boyle, et al. (1999) J. Natl. Cancer Inst. 91:373-379).
Five μg of MSCVIRES-UBE1L-GFP and an empty vector were independently transfected into the Phoenix Amphotropic packaging cell line (ATCC, Manassas, Va.) using EUGENE 6 (Roche, Indianapolis, Ind.), and the vendor's recommended procedures. Forty-eight hours later, viral supernatants were […] respective transduced BEAS-2B HBE or H358 lung cancer cells with 4 μg/ml POLYBRENE (Sigma). Forty-eight hours later, cells positive for GFP expression were harvested using a FACSTAR Plus (Becton Dickinson, San Jose, Calif.) high speed sorting cytometer. This was repeated one week later to enrich for studied transductants.
Clonal growth assays (Langenfeld, et al. (1996) Oncogene 13:1983-90) were performed using 5×10^2 BEAS-2B and 1×10^3 H358 cells. These cells were independently engineered to over-express UBE1L or a control vector. […] Two weeks later, visible colonies were fixed and stained with DIFF QUIK solution (Baxtor, McGaw Park, Ill.) and quantified with the Col Count instrument (Oxford Optronix, Oxford, UK).

[3] = test system: cyclin D1; assay: Cyclin D1 immunoblot in BEAS-2B cells; type: cell-based, human
Description: (§1) The H358 lung cancer cell line was cultured in RPMI-1640 medium (INVITROGEN Corporation, Carlsbad, Calif.) containing L-glutamine, 10% fetal bovine serum and 1% antibiotic-antimycotic solution (CELLGRO, Herndon, Va.) (Petty, et al. (2004) Clin. Cancer Res. 10:7547-54). Cells were incubated at 37° C. in a humidified incubator with 5% CO2. Bexarotene treatments of HBE and lung cancer cells were accomplished according to known methods (Dragnev, et al. (2007) Clin. Cancer Res. 13:1794-800; Dragnev, et al. (2005) J. Clin. Oncol. 23:8757-64).
(§2) Cells were lysed with ice-cold radioimmunoprecipitation (RIPA) lysis buffer, using established techniques (Pitha-Rowe, et al. (2004) supra; Pitha-Rowe, et al. (2004) supra; Feng, et al. (2007) supra; Ma, et al. (2005) Cancer Res. 65:6476-83). Lysates were size-fractionated by sodium dodecyl sulphate-polyacrylamide gel electrophoresis (SDS-PAGE) assays before transfer to nitrocellulose membranes (Schleicher & Schuell Bioscience, Inc., Keene, N.H.). The polyclonal antibody recognizing the UBE1L amino terminus of UBE1L was used for immunoblot and immunohistochemical assays. […] Quantification of signal intensities was scored as before (Shah, et al. (2008) supra; Feng, et al. (2007) supra; Ma, et al. (2005) supra). […]

[4] = test system: cyclin D1; assay: Cyclin D1 immunoblot in H358 cells; type: cell-based
Description: as §1, §2

[5] = test system: UBE1L; assay: UBE1L immunoblot in BEAS-2B cells; type: cell-based, human; conditions: 1 μM, 10 days treatment versus vehicle
Description: as §1, §2

[6] = test system: cyclin D1; assay: Cyclin D1 immunohistochemical expression, post- versus pretreatment lung cancer biopsies; type: in vivo
Description: (§3) Paraffin-embedded and formalin-fixed tissues were obtained from an Institutional Review Board-approved proof of principle bexarotene lung cancer trial (Dragnev, et al. (2007) supra). Tissues were examined for cyclin D1 (Petty, et al. (2004) supra; Dragnev, et al. (2007) supra; Dragnev, et al. (2005) supra), UBE1L (Pitha-Rowe, et al. (2004) supra), ISG15 (Andersen, et al. (2006) Br. J. Cancer 94:1465-71), and Ki-(Petty, et al. (2004) supra; Dragnev, et al. (2007) supra; Dragnev, et al. (2005) supra) immunohistochemical expression profiles.

[7] = test system: UBE1L; assay: UBE1L immunohistochemical expression, post- versus pretreatment lung cancer biopsies; type: in vivo
Description: as §3

[8] = test system: ISG15; assay: ISG15 immunohistochemical expression, post- versus pretreatment lung cancer biopsies; type: in vivo; conditions: post- and pre-bexarotene treatment biopsies of the lung cancer cases
Description: as §3

[9] = test system: Ki-67; assay: Ki-67 immunostaining (proliferation), post- versus pretreatment lung cancer biopsies; type: in vivo
Description: as §3

[10] = cited from earlier work
[11] = test system: NB4-S1 APL cells; assay: NBT reduction maturation (differentiation) assay; type: cell-based; conditions: 5 days treatment with RA (1 μM)
Description: (§4) The NB4 APL cell line expresses PML/RARα (Lanotte, et al. (1991) Blood 77:1080-1086). NB4-S1 and NB4-R1 are RA-sensitive and RA-resistant clones of NB4 cells, respectively (Nason-Burchanel, et al. (1997) Differentiation 61:321-331). These cells were cultured in RPMI-1640 medium supplemented with 10% FBS (see, Nason-Burchenal et al. (1997) supra).
NB4 cell differentiation was scored by using the nitroblue tetrazolium (NBT) reduction assay (Nason-Burchenal, et al. (1997) supra; Nason-Burchenal, et al. (1998a) Blood 92:1758-1767; Nason-Burchanel, et al. (1998b) Oncogene 17:1759-1768) Transductants were identified by green fluorescent protein (GFP) coexpression. Apoptosis was scored by using established techniques and Hoechst staining of transductants that co-expressed GFP (Nason-Burchenal, et al. (1998a) supra; Nason-Burchenal, et al. (1998b) supra; Stadheim, et al. (2001) Cancer Res. 61:1533-1540). Digital images were collected using an OLYMPUS 1×70 inverted microscope, a cooled charge-coupled device camera, and a MIRACAL Pro Single Cell Imaging System (OLYMPUS LSR Research, Melville, N.Y.).

[12] = test system: UBE1L; assay: UBE1L mRNA expression, reverse transcription-PCR in NB4 APL cells; type: cell-based; conditions: 10 μM RA
Description: as §4
UBE1L mRNA expression was assessed by a reverse transcription-PCR assay in accordance with established methods (Kakizuka et al. (1991) Cell 68:663-674). The forward primer was 5′-AGGTGGCCAAGAACTTGGTT-3′ (SEQ ID NO:8), and the reverse primer was 5′-CACCACCTGGAAGTCCAACA-3′ (SEQ ID NO:9). The PCR product was visualized by probing with a ^32P-labeled primer. Results were confirmed independently by Northern analysis using a 1.0-kb EcoRI/NcoI-radiolabeled UBE1L probe in accordance with standard techniques (Langenfeld et al. (1997) Proc. Natl. Acad. Sci. USA 94:12070-12074). This probe had limited homology to E1.

[13] = test system: UBE1L; assay: UBE1L immunoblot expression in NB4 cells; type: cell-based; conditions: NB4-S1 APL cells, RA 1 μM
Description: Two rabbit polyclonal antibodies against UBE1L were independently derived (Covance Research Products, Denver, Pa.) using one peptide within the amino terminus (Asp-Cys-Asp-Pro-Arg-Ser-Ile-His-Val-Arg-Glu-Asp-Gly-Ser-Leu-Glu-Ile-Gly-Asp (SEQ ID NO:10)) and a second peptide within the carboxyl terminus (Pro-Gly-Ser-Gln-Asp-Trp-Thr-Ala-Leu-Arg-Glu-Leu-Leu-Lys-Leu-Leu (SEQ ID NO:11)). Specificities of these antisera were confirmed by immunoblot analyses of UBE1L-transfected CHO cells.
Immunoblot analyses were performed using established techniques (Langenfeld, et al. (1997) Proc. Natl. Acad. Sci. USA 94:12070-12074; Spinella, et al. (1999) J. Biol. Chem. 274:22013-22018). Anti-RARα antibody was provided by and can be purchased from P. Chambon (Institut National de la Sant et de la Recherche Mdicale, Strasbourg, France) to detect PML/RARα (Nason-Burchenal, et al. (1998) Blood 92:1758-1767; Nason-Burchenal, et al. (1998) Oncogene 17:1759-1768). An anti-HA mAb was purchased (Babco, Richmond, Calif.) as was an anti-actin polyclonal antibody, C-11 (Santa Cruz Biotechnology, Santa Cruz, Calif.).

[14] = test system: E1; assay: E1 mRNA expression in NB4-S1 cells; type: cell-based; conditions: RA 1 μM
[15] = test system: ISG15; assay: ISG15 expression and conjugation in NB4 cells; type: cell-based
[16] = case with low bexarotene levels
[17] = lung cancer case with high levels
[18] = representative lung cancer case with low levels

CCCC[C@@H](C=O)NC(=O)[C@H](CC(C)C)NC(=O)[C@H](CC(C)C)NC(C)=O [ALLN] (Ac-Leu-Leu-[Nle]-aldehyde)
ISG15ylated cyclin D1 species [1]: stabilized

C=C(c1ccc(C(=O)O)cc1)c1cc2c(cc1C)C(C)(C)CCC2(C)C [Bexarotene]
BEAS-2B clonal growth [2]: dose-dependent decline | BEAS-2B clonal growth ([2]; listed as bexarotene): Dose-dependent inhibition | cyclin D1 protein [3]: repressed | cyclin D1 protein [4]: repressed | UBE1L expression [5]: prominently increased | cyclin D1 expression in post-versus pre-treatment biopsies ([6]; case with high bexarotene plasma and intratumoral levels): declined | cyclin D1 immunohistochemical expression profile [6, 16]: not appreciably altered | odds ratio, association between intratumoral bexarotene concentration and UBE1L increase ([7]; 95% asymptotic CI 0.1, 354.9): 6 | UBE1L immunohistochemical expression ([7]; case with high bexarotene levels): increase | UBE1L immunohistochemical expression profile [7, 16]: not appreciably altered | response rate for UBE1L ([7]; five cases examined, 95% CI 1, 72): 20% | ISG15 immunohistochemical expression [8]: similar | proliferation, Ki-67 immunostaining ([9]; case with high bexarotene levels, post-versus pretreatment biopsies): decrease | Repression of Ki-67 immunostaining [9, 16]: not observed | bexarotene intratumoral level [10, 17]: 0.31 µM | bexarotene plasma level [10, 17]: 1.49 µM | bexarotene intratumoral level [10, 18]: 0.09 µM | bexarotene plasma level [10, 18]: 0.13 µM

CC1=C(/C=C/C(C)=C/C=C/C(C)=C/C(=O)O)C(C)(C)CCC1 [RA, All-trans-retinoic acid]
NBT, % [11]: 92% | UBE1L expression ([12]; RA-resistant NB4-R1 cell line, same time period): not induced | UBE1L mRNA induction ([12]; RA-sensitive NB4-S1 cells, reverse transcription-PCR): induction occurred by three hours | UBE1L protein expression [13]: induced | E1 mRNA [14]: not induced | ISG15 expression ([15]; RA-sensitive NB4 cells): augments | intracellular ISG15 conjugation ([15]; retinoid-sensitive NB4 cells): increases
